Where “and” joins values, the source holds several entries; their conditions need not be identical. Equal values may be shown once.
Tests used:
[1] = system: CAL-148; assay: normalised viability (% of control), CellTiter-Blue; higher = more viable cells (about 100 = DMSO control); details: incubation time: 72 h
Description: (§1)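 DSRT, CellTiter-Blue viability, 72 h incubation. Signal is normalised to DMSO and benzethonium chloride controls. Value is the normalised response at dose 7.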

[2] = system: CAL-51; assay: as above; details: incubation time: 72 h
Description: as §1

[3] = system: CAL-85-1; assay: as above; details: incubation time: 72 h
Description: as §1

[4] = system: DU-4475; assay: as above; details: incubation time: 72 h
Description: as §1

[5] = system: HDQ-P1; assay: as above; details: incubation time: 72 h
Description: as §1

[6] = system: MDA-MB-453; assay: as above; details: incubation time: 72 h
Description: as §1

[7] = system: BT-474; assay: as above; details: 100 nM; incubation time: 72 h
Description: (§2)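 DSRT, CellTiter-Blue viability, 72 h incubation. Signal is normalised to DMSO and benzethonium chloride controls. Value is the normalised response at dose 3.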

[8] = system: BT-549; assay: as above; details: 100 nM; incubation time: 72 h
Description: as §2

[9] = system: CAL-120; assay: as above; details: 100 nM; incubation time: 72 h
Description: as §2

[10] = system: CAL-148; assay: as above; details: 10 nM; incubation time: 72 h
Description: as §2

[11] = system: CAL-51; assay: as above; details: 10 nM; incubation time: 72 h
Description: as §2

[12] = system: CAL-85-1; assay: as above; details: 10 nM; incubation time: 72 h
Description: as §2

[13] = system: DU-4475; assay: as above; details: 10 nM; incubation time: 72 h
Description: as §2

[14] = system: HCC1143; assay: as above; details: 100 nM; incubation time: 72 h
Description: as §2

[15] = system: HCC1599; assay: as above; details: 100 nM; incubation time: 72 h
Description: as §2

[16] = system: HCC1937; assay: as above; details: 100 nM; incubation time: 72 h
Description: as §2

[17] = system: Hs578T; assay: as above; details: 100 nM; incubation time: 72 h
Description: as §2

[18] = system: MDA-MB-231; assay: as above; details: 100 nM; incubation time: 72 h
Description: as §2

[19] = system: MDA-MB-436; assay: as above; details: 100 nM; incubation time: 72 h
Description: as §2

[20] = system: MDA-MB-453; assay: as above; details: 10 nM; incubation time: 72 h
Description: as §2

[21] = system: MDA-MB-468; assay: as above; details: 100 nM; incubation time: 72 h
Description: as §2

[22] = system: MFM-223; assay: as above; details: 100 nM; incubation time: 72 h
Description: as §2

[23] = system: SK-BR-3; assay: as above; details: 100 nM; incubation time: 72 h
Description: as §2

[24] = system: CAL-120; assay: drug sensitivity score (DSS), CellTiter-Blue viability (DSS (AUC-based score)); higher = stronger viability inhibition; extreme values may be limits of the assay; details: incubation time: 72 h
Description: (§3)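 DSRT with the CellTiter-Blue (resazurin reduction) viability readout, fluorescence 560/590 nm, 72 h incubation. Plates were normalised to DMSO and benzethonium chloride controls. DSS is computed from the area under the fitted dose-response curve (5 or 9 concentrations).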

[25] = system: DU-4475; assay: as above; details: incubation time: 72 h
Description: as §3

[26] = system: HCC1143; assay: as above; details: incubation time: 72 h
Description: as §3

[27] = system: HCC1937; assay: as above; details: incubation time: 72 h
Description: as §3

[28] = system: MFM-223; assay: as above; details: incubation time: 72 h
Description: as §3

`O=C(c1cc(Cc2n[nH]c(=O)c3ccccc23)ccc1F)N1CCN(C(=O)C2CC2)CC1` [Olaparib] (1000 nM) was tested, and the normalised viability [1] was 84.3%, the normalised viability [2] was 88.6% and the normalised viability [3] was 85.8%. For the same molecule, the normalised viability [4] was 81.1%, the normalised viability [5] was 104% and the normalised viability [6] was 79.4%.

`CO[C@H](C(=O)[C@@H](O)[C@@H](C)O)[C@@H]1Cc2cc3cc(O[C@H]4C[C@@H](O[C@@H]5C[C@@H](O)[C@H](O)[C@@H](C)O5)[C@H](O)[C@@H](C)O4)c(C)c(O)c3c(O)c2C(=O)[C@H]1O[C@H]1C[C@@H](O[C@@H]2C[C@@H](O)[C@@H](O[C@@H]3C[C@](C)(O)[C@H](O)[C@@H](C)O3)[C@@H](C)O2)[C@H](O)[C@@H](C)O1` [Plicamycin] was tested, and the normalised viability [7] was 73.2% and 72.3%, the normalised viability [8] was 20.2% and 17% and the normalised viability [9] was 45% and 34.8%. For the same molecule, the normalised viability [10] was 82.9% and 99.5%, the normalised viability [11] was 98.2% and 109% and the normalised viability [12] was 96.7% and 94.2%. For the same molecule, the normalised viability [13] was 88.6% and 110%, the normalised viability [14] was 46% and 30.6% and the normalised viability [15] was 63% and 52.6%. The normalised viability [16] was 48.3% and 41.4%, the normalised viability [17] was 13% and 6.55% and the normalised viability [18] was 34.4% and 28.9%. The normalised viability [19] was 30.2% and 23.4%, the normalised viability [20] was 111% and 91.1% and the normalised viability [21] was 9.16% and 7.26%. For the same molecule, the normalised viability [22] was 71.4% and 61.1%, the normalised viability [23] was 30.8% and 21.9% and the drug sensitivity score [24] was 22.5 and 23.6. For the same molecule, the drug sensitivity score [25] was 28 and 28.2, the drug sensitivity score [26] was 22.2 and 25.5 and the drug sensitivity score [27] was 21.1 and 22.3. For the same molecule, the drug sensitivity score [28] was 18.2 and 19.

For `CO[C@H](C(=O)[C@@H](O)[C@@H](C)O)[C@@H]1Cc2cc3cc(O[C@H]4C[C@@H](O[C@@H]5C[C@@H](O)[C@H](O)[C@@H](C)O5)[C@H](O)[C@@H](C)O4)c(C)c(O)c3c(O)c2C(=O)[C@H]1O[C@H]1C[C@@H](O[C@@H]2C[C@@H](O)[C@@H](O[C@@H]3C[C@](C)(O)[C@H](O)[C@@H](C)O3)[C@@H](C)O2)[C@H](O)[C@@H](C)O1` [Plicamycin] (1000 nM), the normalised viability [1] was 2.42% and 2.71%, the normalised viability [2] was 4.92% and 5.48% and the normalised viability [3] was 6.52% and 5.6%. The normalised viability [4] was 0.92% and -0.07%, the normalised viability [5] was 32.4% and 21.1% and the normalised viability [6] was 8.78% and 7.08%.

Work on `C[C@]12C=CC(=O)C=C1CC[C@@H]1[C@@H]2C(=O)C[C@@]2(C)[C@H]1CC[C@]2(O)C(=O)CO` [Prednisone] (1000 nM) yielded a normalised viability [1] of 101%, a normalised viability [2] of 93.1% and a normalised viability [3] of 94.2%. The normalised viability [4] was 96.3%, the normalised viability [5] was 122% and the normalised viability [6] was 96.7%.

For `CO[C@H]1C[C@@H]2CC[C@@H](C)[C@@](O)(O2)C(=O)C(=O)N2CCCC[C@H]2C(=O)O[C@H]([C@H](C)C[C@@H]2CC[C@@H](O)[C@H](OC)C2)CC(=O)[C@H](C)/C=C(\C)[C@@H](O)[C@@H](OC)C(=O)[C@H](C)C[C@H](C)/C=C/C=C/C=C/1C` [Sirolimus] (100 nM), the normalised viability [1] was 48.1%, the normalised viability [2] was 29.2% and the normalised viability [3] was 52.6%. It also gave a normalised viability [4] of 56.5%, a normalised viability [5] of 70.6% and a normalised viability [6] of 27.9%.

`CN1CCN(c2nc(C3=C(c4c[nH]c5ccccc45)C(=O)NC3=O)c3ccccc3n2)CC1` [Sotrastaurin] (1000 nM) was tested, and the normalised viability [1] was 111%, the normalised viability [2] was 74.3% and the normalised viability [3] was 124%. It also gave a normalised viability [4] of 95.8%, a normalised viability [5] of 100% and a normalised viability [6] of 89.7%.

`CC/C(=C(\c1ccccc1)c1ccc(OCCN(C)C)cc1)c1ccccc1` [Tamoxifen] (1000 nM) gave a normalised viability [1] of 124%, a normalised viability [2] of 78.4% and a normalised viability [3] of 101%. It also gave a normalised viability [4] of 112%, a normalised viability [5] of 98.7% and a normalised viability [6] of 105%.

`COc1cc2c(N3CCN(C(=O)Nc4ccc(OC(C)C)cc4)CC3)ncnc2cc1OCCCN1CCCCC1` [Tandutinib] (100 nM) was tested, and the normalised viability [1] was 101%, the normalised viability [2] was 107% and the normalised viability [3] was 100%. It also gave a normalised viability [4] of 117%, a normalised viability [5] of 112% and a normalised viability [6] of 97.6%.

`C[C@@H](C(=O)O)c1ccc(-c2ccccc2)c(F)c1` [Tarenflurbil] (1000 nM) showed a normalised viability [1] of 92.5%, a normalised viability [2] of 109% and a normalised viability [3] of 90%. It also gave a normalised viability [4] of 108%, a normalised viability [5] of 83.2% and a normalised viability [6] of 87.7%.

For `Cn1nnc2c(C(N)=O)ncn2c1=O` [Temozolomide] (1000 nM), the normalised viability [1] was 113%, the normalised viability [2] was 89.7% and the normalised viability [3] was 104%. It also gave a normalised viability [4] of 101%, a normalised viability [5] of 100% and a normalised viability [6] of 93.6%.

`CC[C@@H]1C(=O)N(C)c2cnc(Nc3ccc(C(=O)N[C@H]4CC[C@H](N5CCN(CC6CC6)CC5)CC4)cc3OC)nc2N1C(C)C` [Volasertib] (100 nM) gave a normalised viability [1] of 23.4%, a normalised viability [2] of 15.7% and a normalised viability [3] of 42%. The normalised viability [4] was 21%, the normalised viability [5] was 51.7% and the normalised viability [6] was 24.5%.
